# Source: PubChem BioAssay (NCI)
#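 Five concentrations, 48 hours, 96-well plates. GI50 marks 50% less growth. At the TGI there is no net growth.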
# Columns and labels:
# Assay in all cases: growth of human tumour cells (NCI), 48 h
# 786-0 renal = system: 786-0 renal
# PC-3 prostate = system: PC-3 prostate
# RXF 393 renal = system: RXF 393 renal
# K-562 leukemia = system: K-562 leukemia
# UO-31 renal = system: UO-31 renal
# A498 renal = system: A498 renal
# UACC-62 melanoma = system: UACC-62 melanoma
# SF-295 CNS = system: SF-295 CNS
# HOP-92 NSCLC = system: HOP-92 NSCLC
# HCT-116 colon = system: HCT-116 colon
# SN12C renal = system: SN12C renal
# NCI-H226 lung = system: NCI-H226 lung
# MDA-MB-231 breast = system: MDA-MB-231 breast
# OVCAR-5 ovarian = system: OVCAR-5 ovarian
# NCI/ADR-RES ovarian = system: NCI/ADR-RES ovarian
# SF-539 CNS = system: SF-539 CNS
# HOP-62 NSCLC = system: HOP-62 NSCLC
# HCC-2998 colon = system: HCC-2998 colon
# KM12 colon = system: KM12 colon
# BT-549 breast = system: BT-549 breast
# CAKI-1 renal = system: CAKI-1 renal
# M14 melanoma = system: M14 melanoma
# UACC-257 melanoma = system: UACC-257 melanoma
# OVCAR-4 ovarian = system: OVCAR-4 ovarian
# EKVX NSCLC = system: EKVX NSCLC
# SNB-19 CNS = system: SNB-19 CNS
# HS 578T breast = system: HS 578T breast
# NCI-H460 lung = system: NCI-H460 lung
# SK-MEL-28 melanoma = system: SK-MEL-28 melanoma
# COLO 205 colon = system: COLO 205 colon
# MOLT-4 leukemia = system: MOLT-4 leukemia
# LOX IMVI melanoma = system: LOX IMVI melanoma
# DU-145 prostate = system: DU-145 prostate
# TK-10 renal = system: TK-10 renal
# NCI-H23 lung = system: NCI-H23 lung
# NCI-H522 lung = system: NCI-H522 lung
# CCRF-CEM leukemia = system: CCRF-CEM leukemia
# MDA-MB-435 = system: MDA-MB-435
# RPMI-8226 leukemia = system: RPMI-8226 leukemia
# ACHN renal = system: ACHN renal
# OVCAR-8 ovarian = system: OVCAR-8 ovarian
# HT29 colon = system: HT29 colon
# SR leukemia = system: SR leukemia
# SW-620 colon = system: SW-620 colon
# A549 NSCLC = system: A549 NSCLC
# IGROV1 ovarian = system: IGROV1 ovarian
# SK-MEL-5 melanoma = system: SK-MEL-5 melanoma
# SK-MEL-2 melanoma = system: SK-MEL-2 melanoma
# OVCAR-3 ovarian = system: OVCAR-3 ovarian
# SNB-75 CNS = system: SNB-75 CNS
# HCT-15 colon = system: HCT-15 colon
# T-47D breast = system: T-47D breast
# HL-60(TB) leukemia = system: HL-60(TB) leukemia
# SF-268 CNS = system: SF-268 CNS
# MCF7 breast = system: MCF7 breast
smiles,measurement,setting,value
Cc1ccc2c(c1)C(=O)c1c-2n(CCCN=[N+]=[N-])c(=O)c2cc([N+](=O)[O-])ccc12,GI50,786-0 renal,29.8 µM
same,TGI,786-0 renal,> 100 µM
same,GI50,PC-3 prostate,33.4 µM
same,TGI,PC-3 prostate,> 100 µM
same,GI50,RXF 393 renal,> 100 µM
same,TGI,RXF 393 renal,> 100 µM
same,GI50,K-562 leukemia,39.4 µM
same,TGI,K-562 leukemia,> 100 µM
same,GI50,UO-31 renal,69 µM
same,TGI,UO-31 renal,> 100 µM
same,GI50,A498 renal,> 100 µM
same,TGI,A498 renal,> 100 µM
same,GI50,UACC-62 melanoma,30.3 µM
same,TGI,UACC-62 melanoma,> 100 µM
same,GI50,SF-295 CNS,> 100 µM
same,TGI,SF-295 CNS,> 100 µM
same,GI50,HOP-92 NSCLC,30.2 µM
same,TGI,HOP-92 NSCLC,> 100 µM
same,GI50,HCT-116 colon,20.5 µM
same,TGI,HCT-116 colon,> 100 µM
same,GI50,SN12C renal,59.4 µM
same,TGI,SN12C renal,> 100 µM
same,GI50,NCI-H226 lung,> 100 µM
same,TGI,NCI-H226 lung,> 100 µM
same,GI50,MDA-MB-231 breast,46.9 µM
same,TGI,MDA-MB-231 breast,> 100 µM
same,GI50,OVCAR-5 ovarian,> 100 µM
same,TGI,OVCAR-5 ovarian,> 100 µM
same,GI50,NCI/ADR-RES ovarian,94 µM
same,TGI,NCI/ADR-RES ovarian,> 100 µM
same,GI50,SF-539 CNS,> 100 µM
same,TGI,SF-539 CNS,> 100 µM
same,GI50,HOP-62 NSCLC,71.7 µM
same,TGI,HOP-62 NSCLC,> 100 µM
same,GI50,HCC-2998 colon,> 100 µM
same,TGI,HCC-2998 colon,> 100 µM
same,GI50,KM12 colon,83 µM
same,TGI,KM12 colon,> 100 µM
same,GI50,BT-549 breast,> 100 µM
same,TGI,BT-549 breast,> 100 µM
same,GI50,CAKI-1 renal,53.9 µM
same,TGI,CAKI-1 renal,> 100 µM
same,GI50,M14 melanoma,> 100 µM
same,TGI,M14 melanoma,> 100 µM
same,GI50,UACC-257 melanoma,> 100 µM
same,TGI,UACC-257 melanoma,> 100 µM
same,GI50,OVCAR-4 ovarian,14 µM
same,TGI,OVCAR-4 ovarian,74.2 µM
same,GI50,EKVX NSCLC,> 100 µM
same,TGI,EKVX NSCLC,> 100 µM
same,GI50,SNB-19 CNS,> 100 µM
same,TGI,SNB-19 CNS,> 100 µM
same,GI50,HS 578T breast,> 100 µM
same,TGI,HS 578T breast,> 100 µM
same,GI50,NCI-H460 lung,21.1 µM
same,TGI,NCI-H460 lung,> 100 µM
same,GI50,SK-MEL-28 melanoma,> 100 µM
same,TGI,SK-MEL-28 melanoma,> 100 µM
same,GI50,COLO 205 colon,> 100 µM
same,TGI,COLO 205 colon,> 100 µM
same,GI50,MOLT-4 leukemia,17.8 µM
same,TGI,MOLT-4 leukemia,70.4 µM
same,GI50,LOX IMVI melanoma,33.2 µM
same,TGI,LOX IMVI melanoma,> 100 µM
same,GI50,DU-145 prostate,> 100 µM
same,TGI,DU-145 prostate,> 100 µM
same,GI50,TK-10 renal,99.8 µM
same,TGI,TK-10 renal,> 100 µM
same,GI50,NCI-H23 lung,> 100 µM
same,TGI,NCI-H23 lung,> 100 µM
same,GI50,NCI-H522 lung,25.8 µM
same,TGI,NCI-H522 lung,> 100 µM
same,GI50,CCRF-CEM leukemia,31.7 µM
same,TGI,CCRF-CEM leukemia,> 100 µM
same,GI50,MDA-MB-435,> 100 µM
same,TGI,MDA-MB-435,> 100 µM
same,GI50,RPMI-8226 leukemia,21.3 µM
same,TGI,RPMI-8226 leukemia,> 100 µM
same,GI50,ACHN renal,30.8 µM
same,TGI,ACHN renal,> 100 µM
same,GI50,OVCAR-8 ovarian,> 100 µM
same,TGI,OVCAR-8 ovarian,> 100 µM
same,GI50,HT29 colon,14.7 µM
same,TGI,HT29 colon,> 100 µM
same,GI50,SR leukemia,8.21 µM
same,TGI,SR leukemia,63.1 µM
same,GI50,SW-620 colon,59.7 µM
same,TGI,SW-620 colon,> 100 µM
same,GI50,A549 NSCLC,97.8 µM
same,TGI,A549 NSCLC,> 100 µM
same,GI50,IGROV1 ovarian,19.2 µM
same,TGI,IGROV1 ovarian,> 100 µM
same,GI50,SK-MEL-5 melanoma,97.6 µM
same,TGI,SK-MEL-5 melanoma,> 100 µM
same,GI50,SK-MEL-2 melanoma,> 100 µM
same,TGI,SK-MEL-2 melanoma,> 100 µM
same,GI50,OVCAR-3 ovarian,> 100 µM
same,TGI,OVCAR-3 ovarian,> 100 µM
same,GI50,SNB-75 CNS,1.26 µM
same,TGI,SNB-75 CNS,58.6 µM
same,GI50,HCT-15 colon,> 100 µM
same,TGI,HCT-15 colon,> 100 µM
same,GI50,T-47D breast,20.7 µM
same,TGI,T-47D breast,93.6 µM
same,GI50,HL-60(TB) leukemia,22 µM
same,TGI,HL-60(TB) leukemia,> 100 µM
same,GI50,SF-268 CNS,5.59 µM
same,TGI,SF-268 CNS,> 100 µM
same,GI50,MCF7 breast,50.1 µM
same,TGI,MCF7 breast,> 100 µM
